# In patent publication US20070111251A1, “Chemical address tags” (priority 2003, published 2007):
# Tested on: HeLa cells
# Test: Kinetic imaging of NBD-triazine probe uptake and sequestration, fitted to nested two-compartment transport model
# Type: cell-based
# Settings: median over optimal solutions within 5% of the best fit
# Method: In living cells, image data was simultaneously acquired with an automated, high-content, kinetic screening instrument equipped with an environmental chamber (see, e.g., V. C. Abraham, D. L. Taylor and J. R. Haskins, Trends in Biotechnology 22, 15 (2004); herein incorporated by reference in its entirety), as cells were incubated with the fluorescent molecules and after removal of extracellular probe. Data was analyzed off line, using an image analysis algorithm to measure the statistical pixel intensity distribution associated with fluorescence probe sequestration in the perinuclear region (see, e.g., FIG. 21; see also, e.g., G. J. Ding et al., Journal of Biological Chemistry 273, 28897 (1998); herein incorporated by reference in its entirety). Data was parametrized with a nested, two-compartment, transport model (see, e.g., W. E. Evans, J. J. Schentag and W. J. Jusko., Applied Pharmacokinetics: Principles of Therapeutic Drug Monitoring (Lippincott Williams & Wilkins, Vancouver, W.A., 1992); herein incorporated by reference in its entirety), using a statistical link function to relate the kinetic coefficient of variation (CV) of pixel intensities in the images with the concentration of probe in vesicles and cytoplasm. Optimal kinetic parameters fitting the experimental data for each probe to the system described by the two-compartment model and statistical link function were determined using the simulated annealing technique (see, e.g., M. Pincus., Oper. Res. 18, 1225 (1979); herein incorporated by reference in its entirety). The present invention is not limited to a particular mechanism. Indeed, an understanding of the mechanism is not necessary to practice the present invention.
# To assess how well the model accounts for all the different kinetic traces acquired, a “PVE” (proportion of variance explained) by the model was calculated. The PVE is one minus the ratio of the sum of squared differences between observed and fitted values to the sum of squared differences between observed values and their mean. PVE values close to one indicate good fit to the nested two-compartment model. The average PVE across the probes was 0.92, with >50% of the probes yielded PVE values […]. The present invention is not limited to a particular mechanism. Indeed, an understanding of the mechanism is not necessary to practice the present invention.
# Cell culture. HeLa cells were grown in RPMI+10% FCS in a 5% CO2 atmosphere at 37° C. and plated in 96-well plates at a density of 3000 cells/well 24 hours prior to the start of the experiment.
# Kinetic Imaging. For influx experiments, cells on 96-well plates were switched to imaging media consisting of RPMI containing 1.0 mM Bromophenol Blue—a soluble, cell-impermeant chromophore used to suppress excitation and emission of extracellular (background) dye fluorescence-, 10 μM probe and 0.1 μM Hoescht 33258 to label the cell nuclei. Plates were then transferred to a KineticScan instrument (Cellomics, Inc., Pittsburgh, Pa.), which contains an environmentally controlled CO2/temperature/humidity chamber, and data was acquired with a 20× objective lens. Images acquisition began approximately 10 min after dye addition, using the Hoescht channel to acquire nuclear images and FITC channel to acquire the NBD image. Plate-scanning mode was used for scanning, in which the instrument builds time-stacks of images by scanning the plate multiple times, returning to the same site of the plate at every scan. For efflux experiments, dye-containing media was removed from the wells of the plate. The wells were washed twice with fresh RPMI medium, imaging media was added, and image acquisition restarted 7 min after the dye-containing media was removed. The last time points of the influx experiment served as the first time point of the efflux experiment. Plates were scanned for approximately two hours in the influx experiment and six hours for the efflux experiment, with each well imaged on average every 7 minutes. […]
median Pap(cyto) (apparent partition coefficient between extracellular medium and cytosol),"median Pap(ves) (apparent partition coefficient between cytosol and intracellular vesicles, k(ves)in/k(ves)out)",SMILES
79.42,0.34,CC(C)Nc1nc(NCCCCCCNc2ccc([N+](=O)[O-])c3nonc23)nc(NCCC(c2ccccc2)c2ccccc2)n1 [Compound F2]
21.91,9.79,CCCCCCCCNc1nc(NCCCCCCNc2ccc([N+](=O)[O-])c3nonc23)nc(NCCC(c2ccccc2)c2ccccc2)n1 [Compound F3]
1.89,43.56,CC1CCC(Nc2nc(NCCCCCCNc3ccc([N+](=O)[O-])c4nonc34)nc(NCCC(c3ccccc3)c3ccccc3)n2)CC1 (stereo not shown) [Compound F4]
6.71,21.53,CC1CCCCC1Nc1nc(NCCCCCCNc2ccc([N+](=O)[O-])c3nonc23)nc(NCCC(c2ccccc2)c2ccccc2)n1 (stereo not shown) [Compound F5]
6.76,19.41,O=[N+]([O-])c1ccc(NCCCCCCNc2nc(NCCC(c3ccccc3)c3ccccc3)nc(NCC3CCCCC3)n2)c2nonc12 [Compound F6]
3.33,8.01,O=[N+]([O-])c1ccc(NCCCCCCNc2nc(NCCC(c3ccccc3)c3ccccc3)nc(NC3CCCCC3)n2)c2nonc12 [Compound F7]
65.86,10.07,CC(C)CCNc1nc(NCCCCCCNc2ccc([N+](=O)[O-])c3nonc23)nc(NCCC(c2ccccc2)c2ccccc2)n1 [Compound F8]
12.30,12.14,CCCCNc1nc(NCCCCCCNc2ccc([N+](=O)[O-])c3nonc23)nc(NCc2ccc(C)cc2)n1 [Compound G1]
211.16,0.28,Cc1ccc(CNc2nc(NCCCCCCNc3ccc([N+](=O)[O-])c4nonc34)nc(NC(C)C)n2)cc1 [Compound G2]
0.95,43.97,CCCCCCCCNc1nc(NCCCCCCNc2ccc([N+](=O)[O-])c3nonc23)nc(NCc2ccc(C)cc2)n1 [Compound G3]
23.97,4.01,Cc1ccc(CNc2nc(NCCCCCCNc3ccc([N+](=O)[O-])c4nonc34)nc(NC3CCC(C)CC3)n2)cc1 (stereo not shown) [Compound G4]
57.45,8.94,Cc1ccc(CNc2nc(NCCCCCCNc3ccc([N+](=O)[O-])c4nonc34)nc(NC3CCCCC3C)n2)cc1 (stereo not shown) [Compound G5]
35.66,10.12,Cc1ccc(CNc2nc(NCCCCCCNc3ccc([N+](=O)[O-])c4nonc34)nc(NCC3CCCCC3)n2)cc1 [Compound G6]

# Continued, molecule first:
SMILES,median Pap(cyto) (apparent partition coefficient between extracellular medium and cytosol),"median Pap(ves) (apparent partition coefficient between cytosol and intracellular vesicles, k(ves)in/k(ves)out)"
COc1ccc(CCNc2nc(NCCCCCCNc3ccc([N+](=O)[O-])c4nonc34)nc(NC3CCC(C)CC3)n2)cc1 (stereo not shown) [Compound D4],99.03,0.22
COc1ccc(CCNc2nc(NCCCCCCNc3ccc([N+](=O)[O-])c4nonc34)nc(NC3CCCCC3C)n2)cc1 (stereo not shown) [Compound D5],9.15,13.58
COc1ccc(CCNc2nc(NCCCCCCNc3ccc([N+](=O)[O-])c4nonc34)nc(NCC3CCCCC3)n2)cc1 [Compound D6],141.76,0.24
COc1ccc(CCNc2nc(NCCCCCCNc3ccc([N+](=O)[O-])c4nonc34)nc(NC3CCCCC3)n2)cc1 [Compound D7],8.37,28.56
COc1ccc(CCNc2nc(NCCCCCCNc3ccc([N+](=O)[O-])c4nonc34)nc(NCCC(C)C)n2)cc1 [Compound D8],236.99,0.24
COc1ccc(CCNc2nc(NCCCCCCNc3ccc([N+](=O)[O-])c4nonc34)nc(NCCc3ccccc3)n2)cc1 [Compound D10],9.41,13.79
CC(C)Nc1nc(NCCCCCCNc2ccc([N+](=O)[O-])c3nonc23)nc(NCc2cccc(F)c2)n1 [Compound E2],49.62,8.43
CCCCCCCCNc1nc(NCCCCCCNc2ccc([N+](=O)[O-])c3nonc23)nc(NCc2cccc(F)c2)n1 [Compound E3],4.14,19.86
CC1CCC(Nc2nc(NCCCCCCNc3ccc([N+](=O)[O-])c4nonc34)nc(NCc3cccc(F)c3)n2)CC1 (stereo not shown) [Compound E4],11.91,16.46
CC1CCCCC1Nc1nc(NCCCCCCNc2ccc([N+](=O)[O-])c3nonc23)nc(NCc2cccc(F)c2)n1 (stereo not shown) [Compound E5],5.98,29.55
O=[N+]([O-])c1ccc(NCCCCCCNc2nc(NCc3cccc(F)c3)nc(NCC3CCCCC3)n2)c2nonc12 [Compound E6],10.29,20.28
O=[N+]([O-])c1ccc(NCCCCCCNc2nc(NCc3cccc(F)c3)nc(NC3CCCCC3)n2)c2nonc12 [Compound E7],8.70,16.57
CC(C)CCNc1nc(NCCCCCCNc2ccc([N+](=O)[O-])c3nonc23)nc(NCc2cccc(F)c2)n1 [Compound E8],12.09,11.21
O=[N+]([O-])c1ccc(NCCCCCCNc2nc(NCCc3ccccn3)nc(NCc3cccc(F)c3)n2)c2nonc12 [Compound E9],225.98,0.37
O=[N+]([O-])c1ccc(NCCCCCCNc2nc(NCCc3ccccc3)nc(NCc3cccc(F)c3)n2)c2nonc12 [Compound E10],5.10,14.90
O=[N+]([O-])c1ccc(NCCCCCCNc2nc(NCCc3ccccc3)nc(NCCC(c3ccccc3)c3ccccc3)n2)c2nonc12 [Compound F10],1.44,53.44
